Results as given in BigSolDB 2.1.

SMILES: O=C(Nc1ccc(F)cc1F)c1cccnc1Oc1cccc(C(F)(F)F)c1
- solubility (mole fraction) (in acetone, 278.15 K): 0.00903
- solubility (mole fraction) (in acetone, 283.15 K): 0.0107
- solubility (mole fraction) (in acetone, 288.15 K): 0.0127
- solubility (mole fraction) (in acetone, 293.15 K): 0.0152
- solubility (mole fraction) (in acetone, 298.15 K): 0.018
- solubility (mole fraction) (in acetone, 303.15 K): 0.021
- solubility (mole fraction) (in acetone, 308.15 K): 0.0247
- solubility (mole fraction) (in acetone, 313.15 K): 0.029
- solubility (mole fraction) (in acetone, 318.15 K): 0.0339
- solubility (mole fraction) (in acetone, 323.15 K): 0.0408
- solubility (mole fraction) (in cyclohexane, 283.15 K): 0.000103
- solubility (mole fraction) (in cyclohexane, 288.15 K): 0.000162
- solubility (mole fraction) (in cyclohexane, 293.15 K): 0.000229
- solubility (mole fraction) (in cyclohexane, 298.15 K): 0.000334
- solubility (mole fraction) (in cyclohexane, 303.15 K): 0.000458
- solubility (mole fraction) (in cyclohexane, 308.15 K): 0.000613
- solubility (mole fraction) (in cyclohexane, 313.15 K): 0.000806
- solubility (mole fraction) (in cyclohexane, 318.15 K): 0.00112
- solubility (mole fraction) (in cyclohexane, 323.15 K): 0.00147
- solubility (mole fraction) (in ethanol, 278.15 K): 0.000251
- solubility (mole fraction) (in ethanol, 283.15 K): 0.000332
- solubility (mole fraction) (in ethanol, 288.15 K): 0.00043
- solubility (mole fraction) (in ethanol, 293.15 K): 0.000545
- solubility (mole fraction) (in ethanol, 298.15 K): 0.000681
- solubility (mole fraction) (in ethanol, 303.15 K): 0.000857
- solubility (mole fraction) (in ethanol, 308.15 K): 0.00107
- solubility (mole fraction) (in ethanol, 313.15 K): 0.00139
- solubility (mole fraction) (in ethanol, 318.15 K): 0.00173
- solubility (mole fraction) (in ethanol, 323.15 K): 0.00214
- solubility (mole fraction) (in isopropanol, 278.15 K): 4.65e-05
- solubility (mole fraction) (in isopropanol, 283.15 K): 7.36e-05
- solubility (mole fraction) (in isopropanol, 288.15 K): 0.000116
- solubility (mole fraction) (in isopropanol, 293.15 K): 0.000183
- solubility (mole fraction) (in isopropanol, 298.15 K): 0.000282
- solubility (mole fraction) (in isopropanol, 303.15 K): 0.000431
- solubility (mole fraction) (in isopropanol, 308.15 K): 0.000665
- solubility (mole fraction) (in isopropanol, 313.15 K): 0.001
- solubility (mole fraction) (in isopropanol, 318.15 K): 0.00152
- solubility (mole fraction) (in isopropanol, 323.15 K): 0.0022
- solubility (mole fraction) (in methanol, 278.15 K): 0.000235
- solubility (mole fraction) (in methanol, 283.15 K): 0.000293
- solubility (mole fraction) (in methanol, 288.15 K): 0.000377
- solubility (mole fraction) (in methanol, 293.15 K): 0.000474
- solubility (mole fraction) (in methanol, 298.15 K): 0.0006
- solubility (mole fraction) (in methanol, 303.15 K): 0.00075
- solubility (mole fraction) (in methanol, 308.15 K): 0.000938
- solubility (mole fraction) (in methanol, 313.15 K): 0.00117
- solubility (mole fraction) (in methanol, 318.15 K): 0.00147
- solubility (mole fraction) (in methanol, 323.15 K): 0.00187
- solubility (mole fraction) (in toluene, 278.15 K): 0.00513
- solubility (mole fraction) (in toluene, 283.15 K): 0.00638
- solubility (mole fraction) (in toluene, 288.15 K): 0.00779
- solubility (mole fraction) (in toluene, 293.15 K): 0.00954
- solubility (mole fraction) (in toluene, 298.15 K): 0.0116
- solubility (mole fraction) (in toluene, 303.15 K): 0.0142
- solubility (mole fraction) (in toluene, 308.15 K): 0.0177
- solubility (mole fraction) (in toluene, 313.15 K): 0.0215
- solubility (mole fraction) (in toluene, 318.15 K): 0.0252
- solubility (mole fraction) (in toluene, 323.15 K): 0.0303
